These results are taken from PMC9633101 (Science signaling, 2022).

In the assay the target is T1, TRPL (TRPL::EGFP) (Drosophila melanogaster, UniProt P48994).
T1 sequence (P48994 1-1124): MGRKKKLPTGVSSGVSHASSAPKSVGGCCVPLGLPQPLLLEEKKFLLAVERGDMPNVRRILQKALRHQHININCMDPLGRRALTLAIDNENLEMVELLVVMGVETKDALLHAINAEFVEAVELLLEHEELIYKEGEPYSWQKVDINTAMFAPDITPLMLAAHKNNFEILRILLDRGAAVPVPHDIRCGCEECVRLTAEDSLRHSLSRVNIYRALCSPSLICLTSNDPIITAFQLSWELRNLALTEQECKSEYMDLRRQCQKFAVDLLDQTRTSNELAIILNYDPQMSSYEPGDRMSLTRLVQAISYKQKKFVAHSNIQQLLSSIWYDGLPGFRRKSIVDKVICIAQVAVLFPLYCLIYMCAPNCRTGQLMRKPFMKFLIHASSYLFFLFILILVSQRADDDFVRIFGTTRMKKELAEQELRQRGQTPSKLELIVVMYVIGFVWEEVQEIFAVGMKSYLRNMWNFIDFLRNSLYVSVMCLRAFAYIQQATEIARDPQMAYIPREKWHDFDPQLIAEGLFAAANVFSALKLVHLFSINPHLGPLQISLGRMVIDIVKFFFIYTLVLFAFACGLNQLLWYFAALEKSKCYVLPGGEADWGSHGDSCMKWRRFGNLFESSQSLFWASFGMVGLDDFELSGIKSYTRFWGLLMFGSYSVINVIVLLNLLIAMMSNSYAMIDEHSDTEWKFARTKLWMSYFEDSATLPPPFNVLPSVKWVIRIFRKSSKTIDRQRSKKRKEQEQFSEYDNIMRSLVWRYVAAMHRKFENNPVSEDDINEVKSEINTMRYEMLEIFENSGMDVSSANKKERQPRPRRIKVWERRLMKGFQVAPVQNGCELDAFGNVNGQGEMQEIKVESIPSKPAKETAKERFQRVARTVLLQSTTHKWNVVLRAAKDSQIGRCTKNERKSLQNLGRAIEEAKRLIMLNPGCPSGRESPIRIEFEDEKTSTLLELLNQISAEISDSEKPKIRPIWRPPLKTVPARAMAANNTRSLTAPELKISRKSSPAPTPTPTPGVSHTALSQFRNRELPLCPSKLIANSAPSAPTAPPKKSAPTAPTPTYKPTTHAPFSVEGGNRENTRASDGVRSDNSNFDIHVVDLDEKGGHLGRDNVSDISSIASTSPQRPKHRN
Briefly: Fura-2 Ca2+ imaging, S2 cells. Format: cell-based.
As for `CCCCC/C=C\C/C=C\CCCCCCCC(=O)NCC(=O)O` [LinGly, linoleoyl glycine], the EC50 is 2.99 µM. Consider `CCCCC/C=C\C/C=C\CCCCCCCC(=O)OC(CO)CO` [2-LG, 2-linoleoyl glycerol], for which the midpoint of the response, the EC50, lay at 5.23 µM. Compound `CCCCC/C=C\C/C=C\CCCCCCCC(=O)NCCO` [LEA, linoleoyl ethanolamide] came in with an EC50 of 7.04 µM.
